From patent US8598383B2, “Pharmaceutical composition for treating or preventing degenerative and inflammatory diseases” (Neurotech Pharmaceuticals Co., Ltd., priority 2006, dated 2013)

What was measured:
[1] = test system: TNF-alpha gene expression in BV2 cell line; assay: Suppressing effect on gene expression (RT-PCR), TNF-alpha; format: cell-based; details: gene expression vs LPS control, BV2, 24 hours
Procedure: (§1) Effects of the 2-hydroxybenzoic acid derivatives on iNOS gene expression in BV2 cell line were evaluated. 100 mm dish was inoculated with 1×10^6 cells of BV2 cell line, and treated with both LPS, inflammation-inducing material, and 1˜100 uM of the 2-hydroxybenzoic acid derivative of the present invention, together, in regular concentration interval. After 24 hours of incubation, RNA was extracted. Extracted RNA was used in reverse transcription and polymerase chain reaction, and expression patterns of TNF-alpha, IL-1beta and iNOS were compared.

[2] = test system: APP/PS1 transgenic mice behavior; assay: Elevated plus maze test in APP/PS1 mice; format: in vivo, mouse; details: 25 mg/kg/day for 7 months, vs chow only
Procedure: APP/PS1 transgenic mice were fed chow alone or containing 25 mg/kg/day of compound 2, for 7 months (3.5˜10.5 months). After administration of 7 months, Elevated plus maze test was performed to evaluate the behavior improvement. Elevated plus maze has two open arms (30 cm×6 cm×0.5 cm) and two closed arms (30 cm×6 cm×15 cm), and also has 6 cm×6 cm of center platform. In Elevated plus maze test, mouse was carefully laid in the center with the head of the mouse toward open arm. The time that the mouse spent in the open arm was recorded for 5 minutes (mean±SEM, n=3-5). *, Significant difference from control (APP/PS1 mouse fed with general chow only), p<0.05 using one-way ANOVA according to Student-Neuman-Keuls' test.

[3] = Single-dose toxicity test; format: in vivo; details: mouse, in vivo; single dose
Procedure: FIG. 32 is results of single dose toxicity testing of some 2-hydroxybenzoic acid derivatives according to the present invention.
Single-dose toxicities of the 2-hydroxybenzoic acid derivatives were evaluated.

[4] = test system: gastric bleeding caused by alcohol; assay: Alcoholic gastritis; format: in vivo, rat; details: pre-treated 1 hour before alcohol
Procedure: FIG. 9 is results showing protecting effect of compound 2 on alcoholic gastritis. A is a picture of normal rat stomach. B is a picture of rat stomach, wherein gastrointestinal bleeding was caused by oral administration of ethanol (4 ml/kg) after 250 g of rat was fasted for 24 hours. C is a picture of rat stomach, wherein rat was pre-treated with compound 21 hour before induction of gastrointestinal bleeding, and stomach was taken out 90 minutes after gastrointestinal bleeding. D is a graph quantifying the degree of stomach injury.
Effect of the 2-hydroxybenzoic acid derivative on alcoholic gastritis was evaluated. 250 g of rat was fasted for 24 hours, and alcohol was orally administered to cause gastric bleeding (B).

[5] = test system: gastric bleeding induced by 60% EtOH/150 mM HCl; assay: Gastritis induced by alcohol and hydrochloric acid; format: in vivo, rat; details: oral
Procedure: FIG. 8 is results showing protecting effect of compound on gastrointestinal bleeding caused by alcohol/hydrochloric acid (EtOH/HCl). A is a picture of normal rat stomach. B is a picture of rat stomach, wherein gastrointestinal bleeding was caused by oral administration of 60% EtOH/150 mM HCl after 200˜250 g of rat was fasted for 24 hours. C is a picture of rat stomach, wherein rat was pre-treated with compound 230 minutes before administration of alcohol/HCl, and stomach was taken out 90 minutes after gastrointestinal bleeding. D is a graph quantifying damaged area to evaluate the degree of stomach injury.
Effect of the 2-hydroxybenzoic acid derivative on gastritis induced by alcohol and hydrochloric acid was evaluated. 200˜250 g of male SD rat was fasted for 24 hours, and 60% EtOH/150 mM HCl was orally administered to induce gastric bleeding (gastric injury). Compound 2 was orally administered according to indicated dose 30 minutes before the gastric bleeding, and stomach was taken out 90 minutes after gastric bleeding to evaluate the degree of gastric injury.

[6] = test system: AGS cell line (human gastric cancer cells); assay: Cell-protecting effect in AGS cells (Helicobacter, sulindac, H2O2, ethanol; MTT); format: cell-based; details: most cell death models
Procedure: (§2) FIG. 3 is results showing cell-protecting effect of compound 2 on gastric mucous membrane damage induced by Helicobacter. Helicobacter (43504, 5×10^6 cfu/ml) was administered to cultured AGS (human gastric cancer) cell, alone or with sample having indicated concentration. MTT analysis method was used to evaluate the survival rate of gastric mucous membrane cell 24 hours after administration.
as §2, with “4” for “3”, “sulindac, a NSAID. 100 uM of sulindac” for “Helicobacter. Helicobacter (43504, 5×10^6 cfu/ml)”, “AGS” for “AGS (human gastric cancer)”, “16” for “24”
FIG. 5 is results showing cell-protecting effect of compound 2 on gastric mucous membrane damage induced by H2O2, oxidative stress. Cultured AGS cell was treated with 100 uM of H2O2 for 8 hours, alone or with sample having indicated concentration, and was washed with culture medium. MTT analysis method was used to evaluate the survival rate of gastric mucous membrane cell 24 hours later. […]
Cell-protecting effect of the 2-hydroxybenzoic acid derivative of the present invention was evaluated. […] After than, the absorbance was analyzed by ELISA reader at 540 nm, and the survival rate of gastric mucous membranes cell was calculated.

[7] = test system: IL-1beta gene expression in BV2 cell line; assay: Suppressing effect on gene expression (RT-PCR), IL-1beta; format: cell-based; details: Mus musculus, BV-2, 24 h, gene expression vs LPS control, BV2, 24 hours
Procedure: as §1

gastric mucous membrane = assay: Safety test about induction of gastric mucous membrane damage; format: in vivo; details: oral, up to 1,000 mg/kg, aspirin as control
Procedure: Test samples were orally administered at different doses to evaluate the degree of the gastric mucous membrane damage. Aspirin was used as control.
FIG. 2 is results showing degrees of the gastric mucous membrane damage. Test samples were orally administered at indicated doses. […] Indomethacine, ibuprofen and celecoxib were used as control.
Conventional NSAIDs have side effects causing damages to the gastric mucous membrane. Therefore, it was evaluated whether compound 2 having anti-inflammatory effect causes the gastric damage or not. 30, 100 or 300 mg/kg of aspirin was orally administered as control.

**Q.** Which results are given for O=C(O)c1cc(NCCc2ccc(C(F)(F)F)cc2)ccc1O [compound 2, 2-hydroxy-5-[2-(4-trifluoromethyl-phenyl)-ethylamino]-benzoic acid]?
**A.** inhibition at 100 µM ([1]; Mus musculus, BV-2, 24 h): 63.2%; % Inhibition (in 100 uM) TNF-alpha [1]: 63.2%; time spent in the open arm [2]: decreased the time for mouse to stay in the open arm; LD50 [3]: > 3000 mg/kg; gastric bleeding [4]: significantly reduced gastric bleeding; toxicity in EtOH/HCl gastritis test [5]: did not show any toxicity; protection against gastric bleeding ([5]; 30 minutes before EtOH/HCl, stomach taken out 90 minutes after): protected stomach against gastric bleeding induction; cell-protecting effect ([6]; 1 uM and 10 uM): more than 50%; cell-protecting effect ([6]; 100 uM): more than 70%; inhibition at 100 µM [7]: 75.1%; gastric mucous membrane damage (gastric mucous membrane): did not cause damage to the gastric mucous membrane; gastric mucous membrane damage (gastric mucous membrane; listed as Compound 2): did not cause the gastric side effect
